Laboratory results published in patent publication US10513495B2, “Polymorph of pimavanserin tartrate and preparation method thereof and use of same” (SHANGHAI BEGREAT PHARMATECH, priority 2016, dated 2019).
Structures can show the parent of a compound that is named as a salt.

Test: Powder fluidity test (angle of repose)
Type: physicochemical
Conditions: for powder flowability (in words): Form III compared to existing Pimavanserin tartrate Form A, B and C; for angle of repose: powder through two funnels onto 7 cm diameter petri dish, α=arc tg(H/R), average of three measurements, ≤30 degrees good, >40 degrees very poor flowability, tartrate
Method: Powder fluidity test: the tray is a 7 cm diameter petri dish. The two glass funnels are overlapped on the iron frame. The distance between the lower funnel outlet and the Petri dish is 3.5-6.0 cm. Pimavanserin tartrate salt was added slowly from the upper funnel, and the sample was gradually accumulated on the petri dish through the buffer of the two funnels to form a cone until the highest cone was obtained. Determine the height H of the cone, measure each sample three times, take the average value, and calculate the angle of repose according to the following formula: α=arc tg(H/R) where α is the angle of repose and R is the radius of the dish
When the angle of repose of the powder is less than or equal to 30 degrees, it means the flowability of this powder is good. While in case, 40 degrees or less of the powder angle of repose, this powder can satisfy the demand for fluidity in the production process. When the angle of repose of the powder is more than 40 degrees, it means the very poor flowability of the drug powder which may cause the troubles above mentioned during the drug manufacturing process.

powder flowability (in words) | angle of repose [°] | Structure (SMILES)
poor | 45 | CC(C)COc1ccc(CNC(=O)N(Cc2ccc(F)cc2)C2CCN(C)CC2)cc1 [Form A, N-(4-fluorobenzyl)-N-(1-methylpiperidin-4-yl)-N′-[4-(2-methylpropoxy)phenylmethyl]urea tartrate]
poor | 43 | CC(C)COc1ccc(CNC(=O)N(Cc2ccc(F)cc2)C2CCN(C)CC2)cc1 [Form B, N-(4-fluorobenzyl)-N-(1-methylpiperidin-4-yl)-N′-[4-(2-methylpropoxy)phenylmethyl]urea tartrate]
poor | 41 | CC(C)COc1ccc(CNC(=O)N(Cc2ccc(F)cc2)C2CCN(C)CC2)cc1 [Form C, N-(4-fluorobenzyl)-N-(1-methylpiperidin-4-yl)-N′-[4-(2-methylpropoxy)phenylmethyl]urea tartrate]

Structure (SMILES) | powder flowability (in words) | angle of repose [°]
CC(C)COc1ccc(CNC(=O)N(Cc2ccc(F)cc2)C2CCN(C)CC2)cc1 [Form III, N-(4-fluorobenzyl)-N-(1-methylpiperidin-4-yl)-N′-[4-(2-methylpropoxy)phenylmethyl]urea tartrate] | significantly improves the powder flowability | 32
